Laboratory results from article PMC10489644, “In Vitro Evaluation of the Potential for Drug Interactions by Salidroside” (Nutrients, 2023).
Values joined by “and” are separate entries in the source; they are usually repeats but may differ in a detail not shown here. Equal values may be shown once. Read-outs that look alike come from different tables or passages of the source.

Tests used:
CYP1A2 = assay: in vitro; conditions: human; for Mean Fold Induction: 48 h
Description: The incubation solution was aspirated and replaced with incubation solution containing the same concentrations of salidroside, vehicle, or positive inducers for an additional 24 h. The total treatment period was 48 h. After the treatment period of 48 h, the incubation solution was aspirated. Hepatocytes were washed twice with pre-warmed HBSS containing 10 mM HEPES (HBSS I) and then the remaining solution was aspirated. Hepatocytes were washed once with pre-warmed HBSS I and incubated with 140 μL of RLT (lysis buffer from RNeasy 96 Kit) supplemented with 1% β-mercaptoethanol. Plates were then stored at −70 °C in a freezer until RNA analysis. Before RNA extraction, the frozen plate was thawed, and cell lysates were transferred to 96-well plates. RNA isolation was performed using a QIAcube RNA extraction system. Reverse transcription was performed to obtain cDNA. Quantification of the selective genes by real-time quantitative polymerase chain reaction (qPCR) was performed with TaqMan universal PCR Master Mix on the Bio-rad CFX384 TouchTM Real-Time PCR System. The relative change in the mRNA level of the selected target genes induced by each test compound was expressed in relation to the vehicle control sample, and fold changes in gene expression were determined by the ΔΔCt method.

[1] = set-up: method as in PMID 22139684, PMID 22525439; conditions: rats, two studies; cited from earlier work
CYP2C9 [2] = biological target: T1, CYP2C9 (Homo sapiens, UniProt P11712); conditions: microsomes
T1 sequence (P11712 whole entry): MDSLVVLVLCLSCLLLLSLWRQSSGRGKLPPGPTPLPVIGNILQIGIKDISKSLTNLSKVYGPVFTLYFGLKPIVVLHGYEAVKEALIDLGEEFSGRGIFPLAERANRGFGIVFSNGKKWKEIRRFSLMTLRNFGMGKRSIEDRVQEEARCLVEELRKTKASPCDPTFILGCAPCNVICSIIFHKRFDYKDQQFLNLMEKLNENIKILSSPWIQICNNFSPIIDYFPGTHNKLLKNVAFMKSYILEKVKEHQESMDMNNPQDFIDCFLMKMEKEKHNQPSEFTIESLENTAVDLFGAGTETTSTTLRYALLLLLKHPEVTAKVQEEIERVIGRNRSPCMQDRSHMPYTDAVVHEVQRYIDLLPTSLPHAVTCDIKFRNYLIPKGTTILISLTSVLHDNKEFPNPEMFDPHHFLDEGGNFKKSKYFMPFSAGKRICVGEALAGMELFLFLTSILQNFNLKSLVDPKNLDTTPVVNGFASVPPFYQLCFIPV

CYP2C9 [3] = biological target: T1, CYP2C9; assay: CYP direct inhibition in human liver microsomes
recombinant human MAO-A = biological target: T2, recombinant human MAO-A (Homo sapiens, UniProt P21397); assay: MAO inhibition, kynuramine oxidation to 4-hydroxyquinoline; type: biochemical
T2 sequence (P21397 1-527): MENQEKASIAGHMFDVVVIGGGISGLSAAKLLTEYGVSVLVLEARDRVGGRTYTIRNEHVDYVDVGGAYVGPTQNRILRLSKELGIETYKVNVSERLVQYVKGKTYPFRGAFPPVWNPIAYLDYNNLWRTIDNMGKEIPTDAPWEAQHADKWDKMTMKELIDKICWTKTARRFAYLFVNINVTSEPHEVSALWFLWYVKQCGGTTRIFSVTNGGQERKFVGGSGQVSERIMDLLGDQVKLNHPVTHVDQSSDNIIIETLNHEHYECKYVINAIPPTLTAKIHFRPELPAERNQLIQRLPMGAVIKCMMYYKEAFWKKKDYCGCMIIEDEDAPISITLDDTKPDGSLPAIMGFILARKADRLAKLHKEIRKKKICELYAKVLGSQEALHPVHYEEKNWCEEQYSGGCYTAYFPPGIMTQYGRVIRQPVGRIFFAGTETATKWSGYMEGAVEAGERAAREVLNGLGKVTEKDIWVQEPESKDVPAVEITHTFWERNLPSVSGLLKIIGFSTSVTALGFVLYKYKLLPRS
Description: (§1) A total of 99 µL of substrate working solution was added into 1.1 mL incubation tubes and then 1 µL of the test compound/control working solution or DMSO (vehicle control) was added, mixed well, and pre-incubated at 37 °C for 5 min. MAO-A (0.005 mg/mL) and MAO-B (0.02 mg/mL) were pre-incubated in the working solution at 37 °C for 5 min. A total of 100 µL of pre-incubated MAO-A or MAO-B working solution was added to incubation tubes to start the reaction, mixed well, and incubated at 37 °C for 15 min. […] All samples were centrifuged at 4000 rpm at 4 °C for 15 min, then 100 µL supernatant with 100 µL of water was transferred for LC-MS/MS analysis.
(§2) Enzyme activity (%) = PAR with compound/PAR vehicle × 100.
(§3) The oxidation of kynuramine to 4-hydroxyquinoline generated was the in vitro marker reaction of MAO-A and MAO-B enzymes.

recombinant human MAO-B = biological target: T3, recombinant human MAO-B (Homo sapiens, UniProt P27338); assay: as above; type: biochemical
T3 construct: purchased Corning
T3 sequence (P27338 1-520): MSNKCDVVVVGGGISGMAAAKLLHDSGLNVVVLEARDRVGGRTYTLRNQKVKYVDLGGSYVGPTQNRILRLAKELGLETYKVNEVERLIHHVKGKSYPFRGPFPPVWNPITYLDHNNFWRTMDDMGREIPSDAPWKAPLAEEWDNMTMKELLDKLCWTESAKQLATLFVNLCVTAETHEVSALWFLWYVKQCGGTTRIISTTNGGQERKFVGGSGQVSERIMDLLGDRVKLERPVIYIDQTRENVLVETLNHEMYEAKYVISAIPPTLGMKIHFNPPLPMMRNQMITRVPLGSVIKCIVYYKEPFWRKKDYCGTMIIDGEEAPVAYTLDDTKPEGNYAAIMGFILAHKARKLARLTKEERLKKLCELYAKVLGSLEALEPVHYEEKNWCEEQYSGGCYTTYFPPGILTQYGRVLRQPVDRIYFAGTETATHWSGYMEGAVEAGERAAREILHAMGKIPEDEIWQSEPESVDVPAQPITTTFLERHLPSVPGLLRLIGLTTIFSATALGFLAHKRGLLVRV
Description: as §1, §2, §3

[4] = Rat pharmacokinetics after IV or oral dosing; type: in vivo, Male Sprague–Dawley rats; conditions: fa = fb/((1 − CL/Qh) × 100%)
Description: An estimation of the maximum plasma concentration of salidroside in humans was made from the pharmacokinetics in rats after oral dosing and the recommended human daily dose of salidroside of 60 mg (two 30 mg capsules). Male Sprague–Dawley rats were dosed either with IV or orally at 12 mg/kg (N = 6/group). Salidroside was moderately cleared (21 mL/min/kg) and well absorbed orally.

CYP3A4 = conditions: for % of Positive Control / Mean Fold Induction: human, 48 h
[5] = set-up: method as in PMID 35684130; conditions: cited from earlier work

SMILES: OC[C@H]1O[C@@H](OCCc2ccc(O)cc2)[C@H](O)[C@@H](O)[C@@H]1O [Salidroside]
- Mean Fold Induction (CYP1A2; 1 µM): 1.3 fold
- Mean Fold Induction (CYP1A2; 3 µM): 1.0 fold
- Mean Fold Induction (CYP1A2; 10 µM): 1.1 fold
- Mean Fold Induction (CYP1A2; 30 µM): 1.2 fold
- fold induction at 48 h, 1 µM (CYP1A2; Mean Fold Induction): 0.9
- fold induction at 48 h, 3 µM (CYP1A2; Mean Fold Induction): 0.9
- fold induction at 48 h, 10 µM (CYP1A2; Mean Fold Induction): 0.9
- fold induction at 48 h, 30 µM (CYP1A2; Mean Fold Induction): 0.8
- percentage recovery of an IV dose as unchanged in the urine [1]: 53.7% and 64%
- IC50 Shift (CYP2C9 [2]): no shift
- IC50 (CYP2C9 [3]): > 50 µM
- IC50 (recombinant human MAO-A): > 50 µM
- inhibition at 50 µM (recombinant human MAO-A; at 50 µM, read-out: maximum % inhibition of MAO-A): 13.3%
- inhibition at 50 µM (recombinant human MAO-B; at 50 µM, read-out: maximum % inhibition of MAO-B): 22.5%
- IC50 (recombinant human MAO-B; substrate kynuramine (20 µM), mean of N = 2): > 50 µM
- estimated oral absorption (fa) [4]: 46%
- Mean Enzyme Activity (CYP3A4; CYP3A4, Lot# SNP, 0.1 µM, N = 3): 1.82 pmol/10^6 cells/min
- % of Positive Control (CYP3A4; 0.1 µM): −15%
- Mean Fold Induction (CYP3A4; 0.1 µM): 2.07 fold
- % of Positive Control (CYP3A4; 1 µM): −26%
- Mean Fold Induction (CYP3A4; 1 µM): 1.55 fold
- % of Positive Control (CYP3A4; 10 µM): −14%
- Mean Fold Induction (CYP3A4; 10 µM): 2.13 fold
- genotoxicity [5]: not genotoxic
